# Laboratory results as given in ChEMBL document CHEMBL5728324, “Inhibitors of Hepatitis C virus polymerase” (2021).
# Assay: HCV Replicon Assay and EC50 Determination: HCV replicon assay is based on the luciferase reporter cell line (Huh-luc/neo-ET). This reporter cell line is a human liver carcinoma cell line (Huh-7) stably transfected with an autonomously replicating bicistronic HCV subgenomic RNA replicon (Lohmann et al., 1999, Science, 285, 110-113). Inhibition of HCV RNA replication was monitored through analysis of reporter luciferase activity. Briefly, HCV replicon cells were incubated with inhibitors for 72 hours at 37° C. After the incubation, duplicate plates were treated and incubated in parallel for assessment of cellular toxicity by XTT staining and anti-HCV activity by measurement of luciferase reporter activity. Either human interferon alpha 2B or ribavirin was used as a reference compound. EC50 values were determined using GraFit (Erithaus software) or Excel.
structure (smiles),measurement,value
CNC(=O)c1c(-c2ccc(F)cc2)oc2cc(N(CCOCCOCc3ccc(C(=O)O)cc3)S(C)(=O)=O)c(C3CC3)cc12,EC50,0.1 to 1 µM
CNC(=O)c1c(-c2ccc(F)cc2)oc2cc(N(CCCCCOCc3ccc(C(=O)O)cc3)S(C)(=O)=O)c(C3CC3)cc12,EC50,< 0.1 µM
CNC(=O)c1c(-c2ccc(F)cc2)oc2cc(N(CCCCCCCc3ccc(C(=O)O)cc3)S(C)(=O)=O)c(C3CC3)cc12,EC50,< 0.1 µM
CNC(=O)c1c(-c2ccc(F)cc2)oc2cc(N(CCOCCOCc3ccc(OC)c(C(=O)O)c3)S(C)(=O)=O)c(C3CC3)cc12,EC50,0.1 to 1 µM
CNC(=O)c1c(-c2ccc(F)cc2)oc2cc(N(CCOCCOCc3ccc(C(=O)/C=C(\O)C(=O)O)cc3)S(C)(=O)=O)c(C3CC3)cc12,EC50,< 0.1 µM
CNC(=O)c1c(-c2ccc(F)cc2)oc2cc(N(CCOCCOCCOC(C)C(=O)O)S(C)(=O)=O)c(C3CC3)cc12 (centres undefined),EC50,< 0.1 µM
CNC(=O)c1c(-c2ccc(F)cc2)oc2cc(N(CC(=O)NC(C)(C)C(=O)NCc3cccc(C(=O)/C=C(\O)C(=O)O)c3)S(C)(=O)=O)c(C3CC3)cc12,EC50,0.1 to 1 µM
CNC(=O)c1c(-c2ccc(F)cc2)oc2cc(N(CCOCCOCc3ccc(F)c(C(=O)O)c3)S(C)(=O)=O)c(C3CC3)cc12,EC50,< 0.1 µM
CNC(=O)c1c(-c2ccc(F)cc2)oc2cc(N(CCOCCOCc3ccccc3C(=O)O)S(C)(=O)=O)c(C3CC3)cc12,EC50,< 0.1 µM
CNC(=O)c1c(-c2ccc(F)cc2)oc2cc(N(CC(=O)NCC(=O)NCc3cccc(C(=O)/C=C(\O)C(=O)O)c3)S(C)(=O)=O)c(C3CC3)cc12,EC50,0.1 to 1 µM
CNC(=O)c1c(-c2ccc(F)cc2)oc2cc(N(CCOCCOCCOCCOCCOCCOCc3cccc(C(=O)/C=C(\O)C(=O)O)c3)S(C)(=O)=O)c(C3CC3)cc12,EC50,0.1 to 1 µM
CNC(=O)c1c(-c2ccc(F)cc2)oc2cc(N(CCOCCOCc3cccc(C(C)=O)c3)S(C)(=O)=O)c(C3CC3)cc12,EC50,< 0.1 µM
CNC(=O)c1c(-c2ccc(F)cc2)oc2cc(N(CCOCCOCc3cccc(C(=O)/C=C(\O)C(=O)O)c3)S(C)(=O)=O)c(C3CC3)cc12,EC50,< 0.1 µM
CNC(=O)c1c(-c2ccc(F)cc2)oc2cc(N(CCOCCOCCOCC(=O)O)S(C)(=O)=O)c(C3CC3)cc12,EC50,0.1 to 1 µM
CNC(=O)c1c(-c2ccc(F)cc2)oc2cc(N(CCOCCCOCc3cccc(C(=O)/C=C(\O)C(=O)O)c3)S(C)(=O)=O)c(C3CC3)cc12,EC50,< 0.1 µM
CNC(=O)c1c(-c2ccc(F)cc2)oc2cc(N(CCCCOCCc3ccc(C(=O)O)cc3)S(C)(=O)=O)c(C3CC3)cc12,EC50,< 0.1 µM
CNC(=O)c1c(-c2ccc(F)cc2)oc2cc(N(CC(=O)NC(C)C(=O)NCc3cccc(C(=O)/C=C(\O)C(=O)O)c3)S(C)(=O)=O)c(C3CC3)cc12 (centres undefined),EC50,0.1 to 1 µM
CNC(=O)c1c(-c2ccc(F)cc2)oc2cc(N(CC(=O)NC3(C(=O)NCc4cccc(C(=O)/C=C(\O)C(=O)O)c4)CCCC3)S(C)(=O)=O)c(C3CC3)cc12,EC50,0.1 to 1 µM
CNC(=O)c1c(-c2ccc(F)cc2)oc2cc(N(CCOCCOCCOC(C(=O)O)c3ccccc3)S(C)(=O)=O)c(C3CC3)cc12 (centres undefined),EC50,0.1 to 1 µM
CNC(=O)c1c(-c2ccc(F)cc2)oc2cc(N(CCOCCOCCOCC(=O)NO)S(C)(=O)=O)c(C3CC3)cc12,EC50,< 0.1 µM
CNC(=O)c1c(-c2ccc(F)cc2)oc2cc(N(CCOC(=O)CNC(=O)CCCC(=O)O)S(C)(=O)=O)c(C3CC3)cc12,EC50,0.1 to 1 µM
CNC(=O)c1c(-c2ccc(F)cc2)oc2cc(N(CCOCCCc3cccc(C(=O)/C=C(\O)C(=O)O)c3)S(C)(=O)=O)c(C3CC3)cc12,EC50,< 0.1 µM
CNC(=O)c1c(-c2ccc(F)cc2)oc2cc(N(CCOCCOCCOCCO)S(C)(=O)=O)c(C3CC3)cc12,EC50,0.1 to 1 µM
CNC(=O)c1c(-c2ccc(F)cc2)oc2cc(N(CCOCCOCc3cccc(C(=O)O)c3)S(C)(=O)=O)c(C3CC3)cc12,EC50,< 0.1 µM
